Source: patent US5438135A, “Water-soluble tetraazaporphins and fluorochrome for labeling” (Hitachi Chemical Company, priority 1991, dated 1995)
Read-outs that look alike come from different tables or passages of the source.

What was measured:
[1] = test system: anti-morphine monoclonal antibody; type: binding
Method: For morphine, aminomorphine and the above-mentioned fluorochrome-labeled morphines, relative immuno-affinity for anti-morphine monoclonal antibody was measured using a competitive reaction in which they competed with tritium-labeled morphine.

[2] = Measurement of fluorescence quantum yield (relative quantum yield method); type: physicochemical; settings: Methanol
Method: For the tetraazaporphins obtained in Examples 1 to 11 and tetraaxzaporphins of this invention obtained in the same manner as in Examples 1 to 11, fluorescence quantum yield was measured according to the method for measuring relative quantum yield described in a reference [J. Photochem. Photobiol, A. Chemistry, vol. 45, p. 117-121 (1988)] using 1,1',3,3,3',3'-hexamethylindotricarbocyanine perchlorate or oxazine-720 as a standard substance in the near infrared region. As is clear from Tables 10 to 12, all of the fluorochromes for labeling of this invention show a sufficient fluorescence quantum yield.

[3] = test system: DNA having a known base sequence; assay: Analysis of the base sequence of DNA (Sanger reaction with labeled primers, DNA sequencer equipped with a semiconductor laser); settings: Triton X-100; semiconductor laser 680 nm
Method: A DNA having a known base sequence was used as a sample. Sanger reaction was carried out for the 4 kinds of bases using each of the labeled primers synthesized in Examples 19 to 25 or primers having a tetraazaporphin attached thereto through a linker synthesized in the same manner as in Examples 19 to 25. The DNA fragments thus obtained were separated by electrophoresis in different lanes for the 4 reaction systems, respectively, and analyzed by means of a DNA sequencer equipped with a semiconductor laser. The reaction systems contained a nonionic surfactant as an addition if necessary.
Each of the phthalocyanines disclosed in International Application Number PCT/US89/03807 was attached to the oligonucleotide primer obtained in Example 18, according to the methods of grafted patents and the methods described in Examples 19 to 25 of this invention. Using each of the phthalocyanine-attached oligonucleotides thus obtained, the base sequence of DNA was analyzed in the same manner as in Example 26.

Human β-globin gene = assay: Detection of β-globin gene in human DNA by PCR with labeled primers, fluorescence intensity of eluate; settings: Triton X-100, laser 680 nm
Method: Human β-globin gene was detected by a gene detection method using the PCR (Polymorase Chain Reaction) method.
Twenty cycles of gene amplification was carried out (the total volume of solution: 100 μl) according to the protocol of Perkin-Elmer-Cetus Corporation by using human placental DNA (1 μg), each of the labeled primers, i.e., illustrative compound No.-[…], synthesized in the manner described above (300 ng), HO-[…] (300 ng), a nonionic surfactant, and TaqDNA polymerase (Perkin-Elmer-Cetus Corporation).
Human placental DNA (1 μg), the same illustrative compound No.-[…] as in sample 1 (300 ng), HO-[…] (300 ng) and a nonionic surfactant were added to a reaction solution containing no TaqDNA polymerase which had been prepared according to the protocol of Perkin-Elmer-Cetus Corporation (the total volume of the solution: 100 μl). […]
After washing with buffer solution A (500 μl) and buffer solution A containing 5% ethanol (500 μl), elution was carried out using buffer solution A containing 10% ethanol (500 μl). The pH of the eluate was adjusted to about 8, and fluorescence intensity was measured by means of a photodiode array by using a semiconductor laser as an exciting light source. […]

## 3-(4-aminobutyl)morphine [Aminomorphine]
[1]
  Relative affinity: 1

## sodium bis(tributylsiloxy)silicon-tetraphenylthionaphthalocyanine octacarboxylate [Illustrative compound No. 1]
[2]; excitation wavelength 700 nm
  Fluorescence quantum yield: 0.33

## sodium bis(tripropylsiloxy)silicon-tetraethylthionaphthalocyaninetetracarboxylate [Illustrative compound No. 16]
[2]; excitation wavelength 700 nm
  Fluorescence quantum yield: 0.32

## CN1CC[C@]23c4c5ccc(O)c4O[C@H]2[C@@H](O)C=C[C@H]3[C@H]1C5 [Morphine]
[1]; relative to morphine, competitive reaction with tritium-labeled morphine
  Relative affinity: 1

## sodium bis(tributylsiloxy)silicon-tetraphenylthioquinolocyanineoctacarboxylate [Illustrative compound No. 21]
[2]; excitation wavelength 650 nm
  Fluorescence quantum yield: 0.52

## Tetraazaporphin-labeled primer 62: oligonucleotide primer 5'-GTTTCCCAGTCACGAC-3' labeled with illustrative compound No. 62 (labeled with tetraazaporphin compound No. 62, position not given here)
[3]
  Number of bases of DNA: 350
  Precision: 99.7%
Human β-globin gene; Sample 1 (with TaqDNA polymerase, 20 cycles)
  Relative intensity Sample 1: 6
Human β-globin gene; Sample 2 (no TaqDNA polymerase)
  Relative intensity Sample 2: 134

## sodium bis(tributylsiloxy)silicon-tetraphenylthionaphthalocyaninesulfonate [Illustrative compound No. 6]
[2]; excitation wavelength 700 nm
  Fluorescence quantum yield: 0.30

## sodium bis(trihydroxyneopentoxy)silicon-tetraphenylthionaphthalocyanineoctacarboxylate [Illustrative compound No. 11]
[2]; excitation wavelength 700 nm
  Fluorescence quantum yield: 0.34
